PubChem BioAssay (NCI)
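Here, GI50 denotes the concentration required for 50% inhibition of growth. The concentration for full growth arrest is given as TGI.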

Columns and labels:
Experiment in all cases: DTP human tumour cell line panel, 384-well format
IGROV1 ovarian = tested on: IGROV1 ovarian
COLO 205 colon = tested on: COLO 205 colon
CAKI-1 renal = tested on: CAKI-1 renal
KM12 colon = tested on: KM12 colon
SF-295 CNS = tested on: SF-295 CNS
A498 renal = tested on: A498 renal
SF-268 CNS = tested on: SF-268 CNS
NCI-H226 lung = tested on: NCI-H226 lung
HOP-92 NSCLC = tested on: HOP-92 NSCLC
MALME-3M melanoma = tested on: MALME-3M melanoma
MCF7 breast = tested on: MCF7 breast
PC-3 prostate = tested on: PC-3 prostate
HS 578T breast = tested on: HS 578T breast
MOLT-4 leukemia = tested on: MOLT-4 leukemia
BT-549 breast = tested on: BT-549 breast
MDA-MB-231 breast = tested on: MDA-MB-231 breast
T-47D breast = tested on: T-47D breast
786-0 renal = tested on: 786-0 renal
OVCAR-4 ovarian = tested on: OVCAR-4 ovarian
HT29 colon = tested on: HT29 colon
UACC-62 melanoma = tested on: UACC-62 melanoma
SK-MEL-28 melanoma = tested on: SK-MEL-28 melanoma
M14 melanoma = tested on: M14 melanoma
OVCAR-5 ovarian = tested on: OVCAR-5 ovarian
MDA-MB-435 melanoma = tested on: MDA-MB-435 melanoma
SR leukemia = tested on: SR leukemia
OVCAR-8 ovarian = tested on: OVCAR-8 ovarian
MDA-MB-468 breast = tested on: MDA-MB-468 breast
SF-539 CNS = tested on: SF-539 CNS
UO-31 renal = tested on: UO-31 renal
DU-145 prostate = tested on: DU-145 prostate
SW-620 colon = tested on: SW-620 colon
NCI-H522 lung = tested on: NCI-H522 lung
EKVX NSCLC = tested on: EKVX NSCLC
HL-60(TB) leukemia = tested on: HL-60(TB) leukemia
U251 glioblastoma = tested on: U251 glioblastoma
HOP-62 NSCLC = tested on: HOP-62 NSCLC
K-562 leukemia = tested on: K-562 leukemia
RXF 393 renal = tested on: RXF 393 renal
SK-MEL-5 melanoma = tested on: SK-MEL-5 melanoma
NCI-H23 lung = tested on: NCI-H23 lung
SN12C renal = tested on: SN12C renal
NCI-H460 NSCLC = tested on: NCI-H460 NSCLC
HCC-2998 colon = tested on: HCC-2998 colon
TK-10 renal = tested on: TK-10 renal
HCT-15 colon = tested on: HCT-15 colon
LOX IMVI melanoma = tested on: LOX IMVI melanoma
SK-OV-3 ovarian = tested on: SK-OV-3 ovarian
NCI/ADR-RES ovarian = tested on: NCI/ADR-RES ovarian
SNB-75 CNS = tested on: SNB-75 CNS
SNB-19 CNS = tested on: SNB-19 CNS
NCI-H322M lung = tested on: NCI-H322M lung
RPMI-8226 leukemia = tested on: RPMI-8226 leukemia
ACHN renal = tested on: ACHN renal
OVCAR-3 ovarian = tested on: OVCAR-3 ovarian
CCRF-CEM leukemia = tested on: CCRF-CEM leukemia
A549 NSCLC = tested on: A549 NSCLC
UACC-257 melanoma = tested on: UACC-257 melanoma

CSc1nc(N)cc(Oc2ccc(-c3nc(Nc4cccc(C(F)(F)F)c4)n[nH]3)cc2)n1
GI50 (IGROV1 ovarian): 676 nM | TGI (IGROV1 ovarian): 3530 nM | GI50 (COLO 205 colon): 489 nM | TGI (COLO 205 colon): 4120 nM | GI50 (CAKI-1 renal): 548 nM | TGI (CAKI-1 renal): 5090 nM | GI50 (KM12 colon): 425 nM | TGI (KM12 colon): 1850 nM | GI50 (SF-295 CNS): 458 nM | TGI (SF-295 CNS): 1900 nM | GI50 (A498 renal): 421 nM | TGI (A498 renal): 1920 nM | GI50 (SF-268 CNS): 463 nM | TGI (SF-268 CNS): 2520 nM | GI50 (NCI-H226 lung): 1070 nM | TGI (NCI-H226 lung): 3630 nM | GI50 (HOP-92 NSCLC): 569 nM | TGI (HOP-92 NSCLC): 3250 nM | GI50 (MALME-3M melanoma): 315 nM | TGI (MALME-3M melanoma): 1000 nM | GI50 (MCF7 breast): 317 nM | TGI (MCF7 breast): 1840 nM | GI50 (PC-3 prostate): 611 nM | TGI (PC-3 prostate): 3090 nM | GI50 (HS 578T breast): 191 nM | TGI (HS 578T breast): 423 nM | GI50 (MOLT-4 leukemia): 187 nM | TGI (MOLT-4 leukemia): 337 nM | GI50 (BT-549 breast): 385 nM | TGI (BT-549 breast): 1620 nM | GI50 (MDA-MB-231 breast): 487 nM | TGI (MDA-MB-231 breast): 10000 nM | GI50 (T-47D breast): 294 nM | TGI (T-47D breast): 16900 nM | GI50 ([…]-0 renal): 368 nM | TGI (786-0 renal): 1590 nM | GI50 (OVCAR-4 ovarian): 457 nM | TGI (OVCAR-4 ovarian): 2210 nM | GI50 (HT29 colon): 354 nM | TGI (HT29 colon): 1430 nM | GI50 (UACC-62 melanoma): 377 nM | TGI (UACC-62 melanoma): 2860 nM | GI50 (SK-MEL-28 melanoma): 582 nM | TGI (SK-MEL-28 melanoma): 3640 nM | GI50 (M14 melanoma): 323 nM | TGI (M14 melanoma): 1210 nM | GI50 (OVCAR-5 ovarian): 2020 nM | TGI (OVCAR-5 ovarian): 6290 nM | GI50 (MDA-MB-435 melanoma): 208 nM | TGI (MDA-MB-435 melanoma): 437 nM | GI50 (SR leukemia): 174 nM | TGI (SR leukemia): 333 nM | GI50 (OVCAR-8 ovarian): 645 nM | TGI (OVCAR-8 ovarian): 2460 nM | GI50 (MDA-MB-468 breast): 202 nM | TGI (MDA-MB-468 breast): 414 nM | GI50 (SF-539 CNS): 349 nM | TGI (SF-539 CNS): 1350 nM | GI50 (UO-31 renal): 502 nM | TGI (UO-31 renal): 14300 nM | GI50 (DU-145 prostate): 998 nM | TGI (DU-145 prostate): 4080 nM | GI50 (SW-620 colon): 431 nM | TGI (SW-620 colon): 6370 nM | GI50 (NCI-H522 lung): 241 nM | TGI (NCI-H522 lung): 625 nM | GI50 (EKVX NSCLC): 599 nM | TGI (EKVX NSCLC): 4320 nM | GI50 (HL-60(TB) leukemia): 180 nM | TGI (HL-60(TB) leukemia): 325 nM | GI50 (U251 glioblastoma): 581 nM | TGI (U251 glioblastoma): 2110 nM | GI50 (HOP-62 NSCLC): 452 nM | TGI (HOP-62 NSCLC): 2190 nM | GI50 (K-562 leukemia): 320 nM | TGI (K-562 leukemia): 968 nM | GI50 (RXF 393 renal): 326 nM | TGI (RXF 393 renal): 1030 nM | GI50 (SK-MEL-5 melanoma): 237 nM | TGI (SK-MEL-5 melanoma): 550 nM | GI50 (NCI-H23 lung): 352 nM | TGI (NCI-H23 lung): 1940 nM | GI50 (SN12C renal): 671 nM | TGI (SN12C renal): 5100 nM | GI50 (NCI-H460 NSCLC): 280 nM | TGI (NCI-H460 NSCLC): 756 nM | GI50 (HCC-2998 colon): 367 nM | TGI (HCC-2998 colon): 1500 nM | GI50 (TK-10 renal): 1510 nM | TGI (TK-10 renal): 6940 nM | GI50 (HCT-15 colon): 400 nM | TGI (HCT-15 colon): 1450 nM | GI50 (LOX IMVI melanoma): 523 nM | TGI (LOX IMVI melanoma): 1790 nM | GI50 (SK-OV-3 ovarian): 394 nM | TGI (SK-OV-3 ovarian): 2220 nM | GI50 (NCI/ADR-RES ovarian): 676 nM | TGI (NCI/ADR-RES ovarian): 2390 nM | GI50 (SNB-75 CNS): 340 nM | TGI (SNB-75 CNS): 1970 nM | GI50 (SNB-19 CNS): 637 nM | TGI (SNB-19 CNS): 5170 nM | GI50 (NCI-H322M lung): 1850 nM | TGI (NCI-H322M lung): 6780 nM | GI50 (RPMI-8226 leukemia): 179 nM | TGI (RPMI-8226 leukemia): 368 nM | GI50 (ACHN renal): 618 nM | TGI (ACHN renal): 2730 nM | GI50 (OVCAR-3 ovarian): 229 nM | TGI (OVCAR-3 ovarian): 492 nM | GI50 (CCRF-CEM leukemia): 175 nM | TGI (CCRF-CEM leukemia): 322 nM | GI50 (A549 NSCLC): 625 nM | TGI (A549 NSCLC): 5520 nM | GI50 (UACC-257 melanoma): 284 nM | TGI (UACC-257 melanoma): 902 nM
